Data published in ChEMBL document CHEMBL1143107 (Bioorg Med Chem, 2008).

Assays:
Homo sapiens [1] = species on record: Homo sapiens; assay: Ratio of IC50 for human COX1 to IC50 for human COX2 in human whole blood; type: tissue-based
[2] = biological target: T1, Prostaglandin G/H synthase 2 (Homo sapiens, UniProt P35354)
T1 sequence (P35354 whole entry): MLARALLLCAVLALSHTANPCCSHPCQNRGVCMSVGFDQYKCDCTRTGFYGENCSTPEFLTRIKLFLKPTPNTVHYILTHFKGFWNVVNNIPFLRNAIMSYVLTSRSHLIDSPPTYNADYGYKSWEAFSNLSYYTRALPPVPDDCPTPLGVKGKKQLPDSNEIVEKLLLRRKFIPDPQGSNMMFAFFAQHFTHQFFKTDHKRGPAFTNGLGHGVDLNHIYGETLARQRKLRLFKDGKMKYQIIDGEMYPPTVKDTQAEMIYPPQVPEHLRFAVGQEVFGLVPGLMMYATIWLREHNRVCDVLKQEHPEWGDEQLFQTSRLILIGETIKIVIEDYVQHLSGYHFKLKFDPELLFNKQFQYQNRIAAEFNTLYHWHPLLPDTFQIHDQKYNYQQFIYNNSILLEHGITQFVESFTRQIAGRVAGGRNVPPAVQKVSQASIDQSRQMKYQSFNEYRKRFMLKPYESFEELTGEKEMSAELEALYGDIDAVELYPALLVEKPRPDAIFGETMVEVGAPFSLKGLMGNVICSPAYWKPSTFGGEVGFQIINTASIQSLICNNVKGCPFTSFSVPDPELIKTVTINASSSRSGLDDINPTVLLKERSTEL
Description: Inhibition of human COX2 in human whole blood

Homo sapiens [3] = species on record: Homo sapiens; assay: Ratio of IC50 for human COX1 to IC50 for human COX2
[4] = biological target: T1, Prostaglandin G/H synthase 2; remark: listed apart in the source

SMILES	Ratio IC50 (Homo sapiens [1])	IC50 [2] [nM]	Ratio IC50 (Homo sapiens [3])	IC50 [4] [nM]
CS(=O)(=O)c1ccc(-c2nc(NCc3ccc(N)cc3)cc(C(F)(F)F)n2)cc1	473	–	–	–
CCS(=O)(=O)c1cc(NCc2ccccc2)nc(-c2ccc(S(C)(=O)=O)cc2)n1	> 110	90.7	–	–
CS(=O)(=O)c1ccc(-c2nc([S+]([O-])Cc3ccccc3)cc(C(F)(F)F)n2)cc1 (centres undefined)	> 1	> 10000	–	–
CS(=O)(=O)c1ccc(-c2nc(O)cc(NCc3ccccc3)n2)cc1	> 2030	–	–	–
CC[S+]([O-])c1cc(NCc2cccs2)nc(-c2ccc(S(C)(=O)=O)cc2)n1 (centres undefined)	> 266	–	–	–
CS(=O)(=O)c1ccc(-c2nccc(NCc3cccs3)n2)cc1	> 10900	9.2	–	–
CS(=O)(=O)c1ccc(-c2nc(NCc3ccc(O)cc3)cc(C(F)(F)F)n2)cc1	> 158	–	–	–
NS(=O)(=O)c1ccc(-c2nc(NCc3ccccn3)cc(C(F)(F)F)n2)cc1	> 10	> 10000	> 33	3000
CS(=O)(=O)c1ccc(-c2nc(Cl)cc(NCc3ccc(F)cc3)n2)cc1	2970	–	–	–
CCc1c(NCc2ccc(F)cc2)nc(-c2ccc(S(C)(=O)=O)cc2)nc1C(F)(F)F	> 972	–	–	–
CS(=O)(=O)c1ccc(-c2nc(SCc3cccs3)cc(C(F)(F)F)n2)cc1	> 24400	4.1	–	–
NS(=O)(=O)c1ccc(-c2nc(NCc3ccco3)cc(C(F)(F)F)n2)cc1	> 3	2790	> 6920	14.4
COc1ccc(CNc2cc(C(F)(F)F)nc(-c3ccc(S(C)(=O)=O)cc3)n2)cc1	> 367	272	–	–
CS(=O)(=O)c1ccc(-c2nc(NCc3csc4ccccc34)cc(C(F)(F)F)n2)cc1	> 1	> 10000	> 1	10000
Cc1ccc(CNc2cc(Cl)nc(-c3ccc(S(C)(=O)=O)cc3)n2)cc1	> 2250	44.4	–	–
NS(=O)(=O)c1ccc(-c2nc(NCc3cccnc3)cc(C(F)(F)F)n2)cc1	> 1	> 10000	> 1	> 10000
CC(C)(C)c1cc(NCc2ccccc2)nc(-c2ccc(S(C)(=O)=O)cc2)n1	1060	–	–	–
CCc1c(NCc2cccs2)nc(-c2ccc(S(C)(=O)=O)cc2)nc1C(F)(F)F	> 83	121	–	–
Cc1c(NCc2ccc(F)cc2)nc(-c2ccc(S(C)(=O)=O)cc2)nc1C(F)(F)F	> 447	22.4	–	–
NS(=O)(=O)c1ccc(-c2nc(NCc3ccncc3)cc(C(F)(F)F)n2)cc1	> 3	3330	> 52	1890
COc1cc(NCc2ccccc2)nc(-c2ccc(S(C)(=O)=O)cc2)n1	> 19600	5.1	–	–
Cc1c(NCc2cccs2)nc(-c2ccc(S(C)(=O)=O)cc2)nc1C(F)(F)F	> 78	38.2	–	–
CCSc1cc(NCc2ccccc2)nc(-c2ccc(S(C)(=O)=O)cc2)n1	414	24.1	–	–

SMILES	Ratio IC50 (Homo sapiens [1])	IC50 [2] [nM]	Ratio IC50 (Homo sapiens [3])	IC50 [4] [nM]
NS(=O)(=O)c1ccc(-c2nc(NCc3ccccc3)cc(C(F)(F)F)n2)cc1	> 5	> 10000	> 25	3980
CCSc1cc(NCc2cccs2)nc(-c2ccc(S(C)(=O)=O)cc2)n1	> 8400	1.2	–	–
CC(C)c1ccc(Nc2cc(C(F)(F)F)nc(-c3ccc(S(C)(=O)=O)cc3)n2)cc1	> 1	> 10000	–	–
CS(=O)(=O)c1ccc(-c2nc(NCc3nc4ccccc4[nH]3)cc(C(F)(F)F)n2)cc1	> 1	> 10000	> 1	> 10000
CS(=O)(=O)c1ccc(-c2nc(NCc3ccc(F)cc3)cc(C(F)(F)F)n2)cc1	1300	77.2	–	–
CS(=O)(=O)c1ccc(-c2nc(C(F)(F)F)cc(S(=O)(=O)Cc3ccccc3)n2)cc1	> 1	> 10000	–	–
CS(=O)(=O)c1ccc(-c2nc(Cl)cc(NCc3ccccc3)n2)cc1	> 9120	–	–	–
NS(=O)(=O)c1ccc(-c2nc(NCc3ccsc3)cc(C(F)(F)F)n2)cc1	> 193	51.9	1390	72
CS(=O)(=O)c1ccc(-c2nc(NCC3CCCCC3)cc(C(F)(F)F)n2)cc1	> 68	–	> 3610	–
CS(=O)(=O)c1ccc(-c2nc(NCC3CC=CCC3)cc(C(F)(F)F)n2)cc1 (centres undefined)	> 304	32.9	> 2320	43.1
CC(C)c1ccc(CNc2cc(C(F)(F)F)nc(-c3ccc(S(C)(=O)=O)cc3)n2)cc1	> 1	> 10000	–	–
CS(=O)(=O)c1ccc(-c2nc(Cl)cc(NCc3cccs3)n2)cc1	> 81300	–	–	–
CS(=O)(=O)c1ccc(-c2nc(NCc3ccccn3)cc(C(F)(F)F)n2)cc1	> 1	> 10000	> 1	> 10000
NS(=O)(=O)c1ccc(-c2nc(NCc3cccs3)cc(C(F)(F)F)n2)cc1	> 634	158	3530	22.3
Cc1ccc(CNc2nc(-c3ccc(S(C)(=O)=O)cc3)nc(Cl)c2C)cc1	> 2730	36.7	–	–
COc1cc(NCc2cccs2)nc(-c2ccc(S(C)(=O)=O)cc2)n1	> 22000	–	–	–
CS(=O)(=O)c1ccc(-c2nc(Nc3ccccc3)cc(C(F)(F)F)n2)cc1	> 1	> 10000	–	–
Cc1c(NCc2ccccc2)nc(-c2ccc(S(C)(=O)=O)cc2)nc1C(F)(F)F	> 556	18	–	–
CS(=O)(=O)c1ccc(-c2nc(NCc3ccc(OC(F)(F)F)cc3)cc(C(F)(F)F)n2)cc1	> 1	> 10000	–	–
Cc1cccc(CNc2cc(C(F)(F)F)nc(-c3ccc(S(C)(=O)=O)cc3)n2)c1	> 52	–	–	–
CS(=O)(=O)c1ccc(-c2nccc(NCc3ccccc3)n2)cc1	> 1	> 10000	–	–
CCN(Cc1ccccc1)c1cc(C(F)(F)F)nc(-c2ccc(S(C)(=O)=O)cc2)n1	> 1	> 10000	–	–
CS(=O)(=O)Oc1ccc(CNc2cc(C(F)(F)F)nc(-c3ccc(S(C)(=O)=O)cc3)n2)cc1	> 1	> 10000	–	–

SMILES	Ratio IC50 (Homo sapiens [1])	IC50 [2] [nM]	Ratio IC50 (Homo sapiens [3])	IC50 [4] [nM]
CS(=O)(=O)c1ccc(-c2nc(O)cc(NCc3cccs3)n2)cc1	> 1260	–	–	–
CS(=O)(=O)c1ccc(-c2nc(NCc3ccc4ccccc4c3)cc(C(F)(F)F)n2)cc1	> 1	> 10000	> 1	> 10000
CS(=O)(=O)c1ccc(-c2nc(SCc3ccccc3)cc(C(F)(F)F)n2)cc1	> 189	528	–	–
Cc1ccc(CNc2cc(C(F)(F)F)nc(-c3ccc(S(C)(=O)=O)cc3)n2)cc1	> 2060	48.4	–	–
Cc1ccccc1CNc1cc(C(F)(F)F)nc(-c2ccc(S(C)(=O)=O)cc2)n1	> 17	–	–	–
CC(C)c1cc(NCc2ccccc2)nc(-c2ccc(S(C)(=O)=O)cc2)n1	> 396	–	–	–
NS(=O)(=O)c1ccc(-c2nc(NCc3csc4ccccc34)cc(C(F)(F)F)n2)cc1	> 1	> 10000	> 10	10000
CS(=O)(=O)c1ccc(-c2nc(NCc3cc(F)cc(F)c3)cc(C(F)(F)F)n2)cc1	> 333	300	–	–
Cn1cccc1CCNc1cc(C(F)(F)F)nc(-c2ccc(S(C)(=O)=O)cc2)n1	> 25	3980	–	–
CS(=O)(=O)c1ccc(-c2nc(NCc3ccc(C(F)(F)F)cc3)cc(C(F)(F)F)n2)cc1	> 52	–	–	–
CS(=O)(=O)c1ccc(-c2nc(NC3CCCCC3)cc(C(F)(F)F)n2)cc1	–	238	–	253
CC(C)Nc1cc(NCc2ccccc2)nc(-c2ccc(S(C)(=O)=O)cc2)n1	> 365	274	–	–
Cc1c(Cl)nc(-c2ccc(S(C)(=O)=O)cc2)nc1NCc1ccc(F)cc1	> 145	–	–	–
Cc1ccc(CNc2cc(C(F)(F)F)nc(-c3ccc(S(C)(=O)=O)cc3)n2)s1	> 852	11.7	–	–
CN(Cc1ccccc1)c1cc(C(F)(F)F)nc(-c2ccc(S(C)(=O)=O)cc2)n1	22	–	–	–
Cc1ccsc1CNc1cc(C(F)(F)F)nc(-c2ccc(S(C)(=O)=O)cc2)n1	189	528	–	–
CS(=O)(=O)c1ccc(-c2nc(NCc3cc4ccccc4s3)cc(C(F)(F)F)n2)cc1	–	293	–	5.92
COCOc1ccc(CNc2cc(C(F)(F)F)nc(-c3ccc(S(C)(=O)=O)cc3)n2)cc1	> 1	> 10000	–	–
CS(=O)(=O)c1ccc(-c2nc(NCCc3cccs3)cc(C(F)(F)F)n2)cc1	> 83	–	–	–
CC(Nc1cc(C(F)(F)F)nc(-c2ccc(S(C)(=O)=O)cc2)n1)c1ccccc1 (centres undefined)	74	522	–	–
CC(C)Nc1cc(NCc2cccs2)nc(-c2ccc(S(C)(=O)=O)cc2)n1	> 9720	10.3	–	–
CCS(=O)(=O)c1cc(NCc2cccs2)nc(-c2ccc(S(C)(=O)=O)cc2)n1	15	144	–	–
